Source: patent US12655116B2, “Substituted isophthalic acid diamides” (Bayer Aktiengesellschaft, priority 2020, dated 2026)

Key:
[1] = system: AMARE; assay: Post-emergence herbicidal action against AMARE; assay type: in vivo, Amaranthus retroflexus; conditions: Amaranthus retroflexus, 504 h, visual assessment about 3 weeks after treatment, 100% = plants have died, 0% = like control plants
Outline: (§1)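 Visual % rating (0% = as untreated, 100% = dead) ~3 wk after spraying one-leaf-stage plants grown in sandy loam; WP/EC in water at 600–800 l/ha, 0.2% wetting agent.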

[2] = system: SETVI; assay: Pre-emergence herbicidal action against SETVI; assay type: in vivo, Setaria viridis; conditions: Setaria viridis, 504 h; for pest or weed control at 80 g/ha: dosage 80 g/ha
Outline: (§2)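 Sandy loam pots, seeds covered with soil, then surface-treated with WP or EC formulations at 600–800 l/ha water plus 0.2% wetting agent. Greenhouse, 3 weeks. Percent damage vs untreated controls.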

[3] = system: AMARE; assay: Pre-emergence herbicidal action against AMARE; assay type: in vivo, Amaranthus retroflexus; conditions: Amaranthus retroflexus, 504 h, 100% = plants have died, 0% = like control plants
Outline: as §2

[4] = system: VIOTR; assay: Pre-emergence herbicidal action against VIOTR; assay type: in vivo, Viola tricolor; conditions: Viola tricolor, 504 h; for pest or weed control at 80 g/ha: dosage 80 g/ha
Outline: as §2

[5] = system: AVEFA; assay: Pre-emergence herbicidal action against AVEFA; assay type: in vivo, Avena fatua; conditions: Avena fatua, 504 h, pre-emergence
Outline: as §2

[6] = system: VERPE; assay: Post-emergence herbicidal action against VERPE; assay type: in vivo, Veronica persica; conditions: Veronica persica, 504 h
Outline: as §1

[7] = system: VIOTR; assay: Post-emergence herbicidal action against VIOTR; assay type: in vivo, Viola tricolor; conditions: Viola tricolor, 504 h
Outline: as §1

[8] = system: PHBPU; assay: Post-emergence herbicidal action against PHBPU; assay type: in vivo, Pharbitis purpurea; conditions: Ipomoea purpurea, 504 h
Outline: as §1

[9] = system: ALOMY; assay: Pre-emergence herbicidal action against ALOMY; assay type: in vivo, Alopecurus myosuroides; conditions: Alopecurus myosuroides, 504 h, pre-emergence; for pest or weed control at 80 g/ha: scored visually after 3 weeks vs untreated controls (100% = plants have died, 0% = like control plants)
Outline: as §2

[10] = system: LOLRI; assay: Pre-emergence herbicidal action against LOLRI; assay type: in vivo, Lolium rigidum; conditions: Lolium rigidum, 504 h
Outline: as §2

[11] = system: HORMU; assay: Pre-emergence herbicidal action against HORMU; assay type: in vivo, Hordeum murinum; conditions: Hordeum murinum, 504 h, pre-emergence
Outline: as §2

[12] = system: STEME; assay: Post-emergence herbicidal action against STEME; assay type: in vivo, Stellaria media; conditions: Stellaria media, 504 h
Outline: as §1

[13] = system: SETVI; assay: Post-emergence herbicidal action against SETVI; assay type: in vivo, Setaria viridis; conditions: Setaria viridis, 504 h
Outline: as §1

[14] = system: ABUTH; assay: Pre-emergence herbicidal action against ABUTH; assay type: in vivo, Abutilon theophrasti; conditions: Abutilon theophrasti, 504 h; for pest or weed control at 80 g/ha: scored visually after 3 weeks vs untreated controls (100% = plants have died, 0% = like control plants)
Outline: as §2

[15] = system: ECHCG; assay: Pre-emergence herbicidal action against ECHCG; assay type: in vivo, Echinochloa crus-galli; conditions: Echinochloa crus-galli, 504 h
Outline: as §2

[16] = system: STEME; assay: Pre-emergence herbicidal action against STEME; assay type: in vivo, Stellaria media; conditions: Stellaria media, 504 h; for pest or weed control at 80 g/ha: dosage 80 g/ha
Outline: as §2

[17] = system: MATIN; assay: Post-emergence herbicidal action against MATIN; assay type: in vivo, Matricaria inodora; conditions: Tripleurospermum inodorum, 504 h; for pest or weed control at 20 g/ha: dosage 20 g/ha
Outline: as §1

[18] = system: ALOMY; assay: Post-emergence herbicidal action against ALOMY; assay type: in vivo, Alopecurus myosuroides; conditions: Alopecurus myosuroides, 504 h, visual assessment about 3 weeks after treatment vs untreated controls; for pest or weed control at 20 g/ha: dosage 20 g/ha
Outline: as §1

[19] = system: HORMU; assay: Post-emergence herbicidal action against HORMU; assay type: in vivo, Hordeum murinum; conditions: Hordeum murinum, 504 h
Outline: as §1

[20] = system: ABUTH; assay: Post-emergence herbicidal action against ABUTH; assay type: in vivo, Abutilon theophrasti; conditions: Abutilon theophrasti, 504 h, visual assessment about 3 weeks after treatment vs untreated controls; for pest or weed control at 20 g/ha: dosage 20 g/ha
Outline: as §1

[21] = system: POLCO; assay: Pre-emergence herbicidal action against POLCO; assay type: in vivo, Polygonum convolvulus; conditions: Fallopia convolvulus, 504 h
Outline: as §2

[22] = scored visually after 3 weeks vs untreated controls
[23] = 320 g/ha, scored visually after 3 weeks, 100% = plants have died, 0% = like control plants
[24] = 20 g/ha, scored visually after 3 weeks, 100% = plants have died, 0% = like control plants

CNC(=O)c1c(C(F)(F)F)ccc(C(=O)Nc2nnnn2C)c1SC [Example 1-81]
100%: pest or weed control at 80 g/ha [2] | pest or weed control at 320 g/ha ([2]; dosage 320 g/ha) | pest or weed control at 80 g/ha [3, 22] | pest or weed control at 320 g/ha ([3]; 320 g/ha, scored visually after 3 weeks) | pest or weed control at 320 g/ha ([4]; dosage 320 g/ha) | pest or weed control at 320 g/ha [5, 23] | pest or weed control at 320 g/ha [9, 23] | pest or weed control at 320 g/ha ([11]; 320 g/ha) | pest or weed control at 80 g/ha [14] | pest or weed control at 320 g/ha ([14]; Dosage: 320 g/ha, scored visually after 3 weeks, 100% = plants have died, 0% = like control plants) | pest or weed control at 80 g/ha [15] | pest or weed control at 320 g/ha ([15]; 320 g/ha) | pest or weed control at 80 g/ha [16] | pest or weed control at 320 g/ha ([16]; dosage 320 g/ha) | pest or weed control at 80 g/ha ([17]; dosage 80 g/ha)
90%: pest or weed control at 20 g/ha [1] | pest or weed control at 80 g/ha ([1]; 80 g/ha) | pest or weed control at 80 g/ha [4] | pest or weed control at 80 g/ha [5] | pest or weed control at 80 g/ha ([6]; 80 g/ha) | pest or weed control at 20 g/ha [12] | pest or weed control at 80 g/ha ([12]; 80 g/ha) | pest or weed control at 80 g/ha ([13]; dosage 80 g/ha) | pest or weed control at 80 g/ha ([18]; dosage 80 g/ha) | pest or weed control at 80 g/ha ([20]; dosage 80 g/ha)
80%: pest or weed control at 20 g/ha [6] | pest or weed control at 80 g/ha ([7]; 80 g/ha) | pest or weed control at 80 g/ha ([8]; dosage 80 g/ha) | pest or weed control at 80 g/ha [9] | pest or weed control at 320 g/ha ([10]; 320 g/ha) | pest or weed control at 80 g/ha [11] | pest or weed control at 20 g/ha [17] | pest or weed control at 20 g/ha [18] | pest or weed control at 80 g/ha ([19]; dosage 80 g/ha) | pest or weed control at 20 g/ha [20]

CCn1nnnc1NC(=O)c1ccc(Cl)c(C(=O)NC2CC2)c1Cl [Example 2-173]
80%: pest or weed control at 20 g/ha [6] | pest or weed control at 5 g/ha ([8]; dosage 5 g/ha)
90%: pest or weed control at 20 g/ha [5, 24] | pest or weed control at 20 g/ha ([8]; dosage 20 g/ha) | pest or weed control at 80 g/ha ([10]; 80 g/ha) | pest or weed control at 20 g/ha ([14]; dosage 20 g/ha, scored visually after 3 weeks vs untreated controls, 100% = plants have died, 0% = like control plants, read-out: Pre-emergence action against ABUTH (herbicidal activity in percent)) | pest or weed control at 20 g/ha ([21]; dosage 20 g/ha) | pest or weed control at 5 g/ha ([20]; dosage 5 g/ha)
100%: pest or weed control at 20 g/ha [1] | pest or weed control at 80 g/ha [2] | pest or weed control at 20 g/ha ([3]; 20 g/ha, scored visually after 3 weeks vs untreated controls) | pest or weed control at 80 g/ha [3, 22] | pest or weed control at 80 g/ha [4] | pest or weed control at 80 g/ha [5] | pest or weed control at 20 g/ha ([7]; 20 g/ha) | pest or weed control at 80 g/ha [9] | pest or weed control at 20 g/ha [9, 24] | pest or weed control at 80 g/ha [11] | pest or weed control at 20 g/ha [12] | pest or weed control at 5 g/ha ([12]; dosage 5 g/ha) | pest or weed control at 5 g/ha ([13]; dosage 5 g/ha) | pest or weed control at 20 g/ha ([13]; dosage 20 g/ha) | pest or weed control at 80 g/ha [14] | pest or weed control at 80 g/ha [15] | pest or weed control at 20 g/ha ([16]; dosage 20 g/ha) | pest or weed control at 80 g/ha [16] | pest or weed control at 20 g/ha [17] | pest or weed control at 20 g/ha [18] | pest or weed control at 20 g/ha ([19]; dosage 20 g/ha) | pest or weed control at 80 g/ha ([21]; dosage 80 g/ha) | pest or weed control at 20 g/ha [20]
